Data published in patent publication US7892769B2, “Processing of EphA4 polypeptide by γ-secretase activity” (Eisai R&D Management Co., Ltd., priority 2007, dated 2011).

Experiments:
[1] = target: T1, γ-secretase (Rattus norvegicus, UniProt P97887); assay: Analysis of EphA4 processing in primary culture of rat hippocampal neurons (Western blotting, anti-EphA4 antibody); format: cell-based; settings: Compound E final concentration 50 nM, one week; endogenous EphA4; vs sample untreated with Compound E; FIG. 2
T1 construct: endogenous in cells; host or cells: primary culture of hippocampal neurons from embryonic day 18 SD rats (Charles River)
Experimental: Whether or not EphA4 is a substrate for γ-secretase was evaluated using a primary culture of rat hippocampal neurons in the presence of a γ-secretase inhibitor. As the γ-secretase inhibitor, (2S)-2-{[(3,5-difluorophenyl)acetyl]amino}-N-[(3S)-1-methyl-2-oxo-5-phenyl-2,3-dihydro-1H-1,4-benzodiazepin-3-yl]propanamide (Compound E) (Alexis Biochemicals) was used.
The hippocampus was isolated from embryonic day 18 SD rats (Charles River) and subjected to culture. Specifically, embryos were removed aseptically from pregnant rats under etherization. The brain was removed from each embryo and dipped in 20% FBS (Hyclone)/HBSS (Sigma). The hippocampus was collected from the thus obtained brain under a stereomicroscope. The collected hippocampus was treated in an enzyme solution containing 0.25% trypsin (Invitrogen) and 0.5 mg/ml DNase (Sigma) at 35° C. for 10 minutes to disperse cells. This enzyme reaction was terminated by adding 20% FBS (Hyclone)/HBSS (Sigma). Then, 2 ml of HBSS (Sigma) was added to the resultant cells. The HBSS-added cell mass was re-dispersed by gentle pipetting. The resultant neuron suspension was diluted with a medium and plated in 10 cm dishes at an initial cell density of 1.5×10^6 cells/dish. […] Then, cells were collected with PBS and subjected to quantitative determination of protein. […]

[2] = target: T2, γ-secretase (Homo sapiens, UniProt P49768); assay: Analysis of EphA4 processing in EphA4-HA-transfected 293/EBNA-1 cell strain (Western blotting, anti-HA antibody); format: cell-based; settings: 50 nM Compound E, one day; cells expressing rat EphA4 with C-terminal HA tag; vs sample untreated with Compound E; FIG. 1
T2 construct: host or cells: 293/EBNA-1 (HEK293) cells; only the substrate EphA4-HA was transfected
Experimental: Whether or not EphA4 is a substrate for γ-secretase was evaluated using HEK293 cells expressing EphA4 with an HA tag added to its C-terminus, in the presence of a γ-secretase inhibitor. As the γ-secretase inhibitor, (2S)-2-{[(3,5-difluorophenyl)acetyl]amino}-N-[(3S)-1-methyl-2-oxo-5-phenyl-2,3-dihydro-1H-1,4-benzodiazepin-3-yl]propanamide (hereinafter, sometimes referred to as “Compound E”) (Alexis Biochemicals) was used.
293/EBNA-1 cell strain (Invitrogen) was cultured in 10% FEB (Hyclone)/DMEM (Invitrogen) under 5% CO2 at 37° C., followed by transfection thereinto of a gene encoding rat EphA4 with an HA tag added to its C-terminus with Lipofectamine 2000 (Invitrogen). After one day culture under the same conditions, 50 nM Compound E (Alexis Biochemicals) was added to the medium. Cells were cultured for another day under the same conditions. Then, the transfected HEK293 cells were collected with PBS (Sigma) and sonicated with a sonicator (Taitec VP-5S) to disrupt cells. Then, the quantity of protein was determined with Protein Assay Kit (BioRad). […]
First, the substrate for γ-secretase is cut off its extracellular domain by other protease. […] Since reactions proceed very quickly from the first cleavage to the final degradation by proteasome, the substrate is […] when detected by Western blotting.

Q: For `C[C@H](NC(=O)Cc1cc(F)cc(F)c1)C(=O)N[C@H]1N=C(c2ccccc2)c2ccccc2N(C)C1=O` [Compound E, (2S)-2-{[(3,5-difluorophenyl)acetyl]amino}-N-[(3S)-1-methyl-2-oxo-5-phenyl-2,3-dihydro-1H-1,4-benzodiazepin-3-yl]propanamide], which “accumulation of EphA4 C-terminal fragment (CTF) band” value [1] is on record?
A: a band around 50 kDa (CTF) was accumulated specifically

Q: What about the “accumulation of EphA4 C-terminal fragment (CTF) band” value [2] of the same molecule?
A: a band around 50 kDa (CTF) was accumulated specifically
